Columns and labels:
Assay type in all cases: in vivo
Settings in all cases: Rate 1000 g/ha; evaluated after 13 days
[1] = system: Alopecurus myosuroides (ALOMY); experiment: B1 pre-emergence herbicidal activity
Method: (§1) Seeds of a variety of test species were sown in standard soil in pots: Triticum aestivium (TRZAW), Oryza sativa (ORYSA), Avena fatua (AVEFA), Alopecurus myosuroides (ALOMY), Echinochloa crus-galli (ECHCG), Lolium perenne (LOLPE). After cultivation for one day (pre-emergence) under controlled conditions in a glasshouse (at 24/16° C., day/night; 14 hours light; 65% humidity), the plants were sprayed with an aqueous spray solution derived from the formulation of the technical active ingredient in acetone/water (50:50) solution containing 0.5% Tween 20 (polyoxyethelyene sorbitan monolaurate, CAS RN 9005-64-5). The test plants were then grown in a glasshouse under controlled conditions (at 24/16° C., day/night; 14 hours light; 65% humidity) and watered twice daily. After 13 days, the test was evaluated (5=total damage to plant; 0=no damage to plant).

Avena fatua (AVEFA) [2] = experiment: B1 pre-emergence herbicidal activity
Method: as §1

[3] = system: Echinochloa crus-galli (ECHCG); experiment: B1 pre-emergence herbicidal activity
Method: as §1

Lolium perenne (LOLPE) [4] = experiment: B1 pre-emergence herbicidal activity
Method: as §1

Oryza sativa (ORYSA) [5] = experiment: B1 pre-emergence herbicidal activity
Method: as §1

[6] = system: Triticum aestivium (TRZAW); experiment: B1 pre-emergence herbicidal activity
Method: as §1

[7] = system: Alopecurus myosuroides (ALOMY); experiment: B2 post-emergence herbicidal activity
Method: (§2) Seeds of a variety of test species were sown in standard soil in pots: Triticum aestivium (TRZAW), Oryza sativa (ORYSA), Avena fatua (AVEFA), Alopecurus myosuroides (ALOMY), Echinochloa crus-galli (ECHCG), Lolium perenne (LOLPE). After 8 days cultivation (post-emergence) under controlled conditions in a glasshouse (at 24/16° C., day/night; 14 hours light; 65% humidity), the plants were sprayed with an aqueous spray solution derived from the formulation of the technical active ingredient in acetone/water (50:50) solution containing 0.5% Tween 20 (polyoxyethelyene sorbitan monolaurate, CAS RN 9005-64-5). The test plants were then grown in a glasshouse under controlled conditions (at 24/16° C., day/night; 14 hours light; 65% humidity) and watered twice daily. After 13 days, the test was evaluated (5=total damage to plant; 0=no damage to plant).

Avena fatua (AVEFA) [8] = experiment: B2 post-emergence herbicidal activity
Method: as §2

[9] = system: Echinochloa crus-galli (ECHCG); experiment: B2 post-emergence herbicidal activity
Method: as §2

Lolium perenne (LOLPE) [10] = experiment: B2 post-emergence herbicidal activity
Method: as §2

Oryza sativa (ORYSA) [11] = experiment: B2 post-emergence herbicidal activity
Method: as §2

[12] = system: Triticum aestivium (TRZAW); experiment: B2 post-emergence herbicidal activity
Method: as §2

Compound | Control of ALOMY after pre-emergence application (damage score 0-5) [1] | Control of AVEFA after pre-emergence application (damage score 0-5) (Avena fatua (AVEFA) [2]) | Control of ECHCG after pre-emergence application (damage score 0-5) [3] | Control of LOLPE after pre-emergence application (damage score 0-5) (Lolium perenne (LOLPE) [4]) | Control of ORYSA after pre-emergence application (damage score 0-5) (Oryza sativa (ORYSA) [5]) | Control of TRZAW after pre-emergence application (damage score 0-5) [6] | Control of ALOMY after post-emergence application (damage score 0-5) [7] | Control of AVEFA after post-emergence application (damage score 0-5) (Avena fatua (AVEFA) [8]) | Control of ECHCG after post-emergence application (damage score 0-5) [9] | Control of LOLPE after post-emergence application (damage score 0-5) (Lolium perenne (LOLPE) [10]) | Control of ORYSA after post-emergence application (damage score 0-5) (Oryza sativa (ORYSA) [11]) | Control of TRZAW after post-emergence application (damage score 0-5) [12]
CN(C(=O)N(C)C(C)(C)C)c1cn(-c2cncnc2)nc1C(F)(F)F [Compound A51] | 0 | 0 | 1 | 0 | 1 | 0 | 1 | 2 | 2 | 1 | 0 | 2
Cc1nn(-c2cncnc2)cc1N(C)C(=O)Nc1ccc(C#N)cc1 [Compound A52] | 0 | 0 | 0 | 0 | 0 | 0 | 0 | 0 | 0 | 0 | 0 | 0
Cc1nn(-c2cncnc2)cc1N(C)C1=NCCCCO1 [Compound A53] | 0 | 0 | 0 | 0 | 0 | 0 | 0 | 0 | 0 | 1 | 0 | 0
C=CCN(C(=O)OC(C)(C)C)c1cn(-c2cncc(F)c2)nc1C [Compound A54] | 0 | 0 | 0 | 0 | 0 | 0 | 1 | 1 | 1 | 1 | 0 | 0
CCN(C(=O)OC(C)(C)C)c1cn(-c2cncc(F)c2)nc1C(F)(F)F [Compound A55] | 0 | 0 | 0 | 0 | 0 | 0 | 0 | 0 | 0 | 0 | 0 | 0

— patent US10905123B2, “Herbicidal compounds” (Syngenta Participations AG, priority 2015, dated 2021)
